# In patent US20070049564A1 (Wyeth, priority 2005, published 2007):
# Columns and labels:
# Assay in all cases: MIC, broth microdilution
# E. coli GC 2235 = settings: Escherichia coli, GC2235, E. coli GC 2235
# Protocol: (§1) Antimicrobial susceptibility testing. The in vitro activities of the antibiotics are determined by the broth microdilution method as recommended by the National Committee for Clinical Laboratory Standards (NCCLS) (1). Mueller-Hinton II broth (MHBII)(BBL Cockeysville, Md.) is the medium employed in the testing procedures. Microtiter plates containing serial dilutions of each antimicrobial agent are inoculated with each organism to yield the appropriate density (10^5 CFU/ml) in a 100 μl final volume. The plates are incubated for 18-22 hours at 35° C. in ambient air.
# Representative compounds were first incubated in mouse serum for an hour prior to the in vitro testing against a panel of selected gram-positive and gram-negative bacteria strains. All compounds were also pre-incubated in water for an hour prior to testing as control. Representative compounds of Formula I were incubated in human serum prior to MIC determination.
# E. coli GC 2233 = settings: Escherichia coli, GC2233, E. coli GC 2233
# E. coli GC 2234 = settings: Escherichia coli, GC2234, E. coli GC 2234
# E. coli GC 2270 = settings: Escherichia coli, GC2270, E. coli GC 2270
# E. coli GC 2271 = settings: Escherichia coli, GC2271, E. coli GC 2271
# E. coli GC 4559 = settings: Escherichia coli, GC4559, E. coli GC 4559
# E. coli GC 4560 = settings: Escherichia coli, GC4560, E. coli GC 4560
# E. coli GC 6465 = settings: Escherichia coli, GC6465, E. coli GC 6465
# Protocol: as §1
# Representative compounds were first incubated in mouse serum for an hour prior to the in vitro testing against a panel of selected gram-positive and gram-negative bacteria strains. All compounds were also pre-incubated in water for an hour prior to testing as control.
# E. coli GC 3226 = settings: Escherichia coli, GC3226, E. coli GC 3226
# E. coli GC 2203 = settings: Escherichia coli, GC2203, E. coli GC 2203
# Protocol: Antimicrobial susceptibility testing. The in vitro activities of the antibiotics are determined by the broth microdilution method as recommended by the National Committee for Clinical Laboratory Standards (NCCLS) (1). Mueller-Hinton II broth (MHBII)(BBL Cockeysville, Md.) is the medium employed in the testing procedures. Microtiter plates containing serial dilutions of each antimicrobial agent are inoculated with each organism to yield the appropriate density (10^5 CFU/ml) in a 100 μl final volume. The plates are incubated for 18-22 hours at 35° C. in ambient air. […] Standard Pharmacological Test Procedures
# Presented in Tables I-XIII are representative compounds of Formula I which were evaluated against a panel of 40 selected gram-positive and gram-negative bacteria strains by pre-incubation in water, mouse serum or human serum. Representative compounds were first incubated in mouse serum for an hour prior to the in vitro testing against a panel of selected gram-positive and gram-negative bacteria strains. All compounds were also pre-incubated in water for an hour prior to testing as control. Representative compounds of Formula I were incubated in human serum prior to MIC determination.
# E. coli GC 1073 = settings: Escherichia coli, GC1073, E. coli GC 1073
# S. typhimurium GC 2172 = settings: Salmonella enterica, TYPHIMURIUM, S. typhimurium GC 2172
# S. aureus GC 6466 = settings: Staphylococcus aureus, GC6466, S. aureus GC 6466
# S. aureus GC 6467 = settings: Staphylococcus aureus, GC6467, S. aureus GC 6467
# S. aureus GC 1079 = settings: Staphylococcus aureus, GC1079, S. aureus GC 1079
# S. aureus GC 6335 = settings: Staphylococcus aureus, GC6335, S. aureus GC 6335
# S. aureus GC 6469 = settings: Staphylococcus aureus, GC6469, S. aureus GC 6469
# E. faecium GC 4556 = settings: Enterococcus faecium, GC4556, E. faecium GC 4556
# S. pyogenes GC 4563 = settings: Streptococcus pyogenes, GC4563, S. pyogenes GC 4563
# S. agalactiae GC 4564 = settings: Streptococcus agalactiae, GC4564, S. agalactiae GC 4564
compound,measurement,setting,value
"CCCN(CC(=O)Nc1cc(N(C)C)c2c(c1O)C(=O)C1=C(O)[C@]3(O)C(=O)C(C(N)=O)=C(O)[C@@H](N(C)C)[C@@H]3C[C@@H]1C2)C(=O)OCC(C)C [Example 16, isobutyl 2-{[(5aR,6aS,7S,10aS)-9-(aminocarbonyl)-4,7-bis(dimethylamino)-1,8,10a,11-tetrahydroxy-10,12-dioxo-5,5a,6,6a,7,10,10a,12-octahydrotetracen-2-yl]amino}-2-oxoethyl(propyl)carbamate]",MIC,E. coli GC 2235; Mouse Serum pre-incubation,16 µg/mL
same,MIC,E. coli GC 2235; Water pre-incubation,64 µg/mL
same,MIC,E. coli GC 2233; Mouse Serum pre-incubation,> 64 µg/mL
same,MIC,E. coli GC 2233; Water pre-incubation,> 64 µg/mL
same,MIC,E. coli GC 2234; Mouse Serum pre-incubation,> 64 µg/mL
same,MIC,E. coli GC 2234; Water pre-incubation,> 64 µg/mL
same,MIC,E. coli GC 2270; Mouse Serum pre-incubation,> 64 µg/mL
same,MIC,E. coli GC 2270; Water pre-incubation,> 64 µg/mL
same,MIC,E. coli GC 2271; Mouse Serum pre-incubation,> 64 µg/mL
same,MIC,E. coli GC 2271; Water pre-incubation,> 64 µg/mL
same,MIC,E. coli GC 4559; Mouse Serum pre-incubation,> 64 µg/mL
same,MIC,E. coli GC 4559; Water pre-incubation,> 64 µg/mL
same,MIC,E. coli GC 4560; Mouse Serum pre-incubation,2 µg/mL
same,MIC,E. coli GC 4560; Water pre-incubation,4 µg/mL
same,MIC,E. coli GC 6465; Mouse Serum pre-incubation,> 64 µg/mL
same,MIC,E. coli GC 6465; Water pre-incubation,> 64 µg/mL
same,MIC,E. coli GC 3226; Mouse Serum pre-incubation,64 µg/mL
same,MIC,E. coli GC 3226; Water pre-incubation,> 64 µg/mL
same,MIC,E. coli GC 2203; Mouse Serum pre-incubation,16 µg/mL
same,MIC,E. coli GC 2203; Water pre-incubation,64 µg/mL
same,MIC,E. coli GC 1073; Mouse Serum pre-incubation,> 64 µg/mL
same,MIC,E. coli GC 1073; Water pre-incubation,> 64 µg/mL
same,MIC,S. typhimurium GC 2172; Mouse Serum pre-incubation,> 64 µg/mL
same,MIC,S. typhimurium GC 2172; Water pre-incubation,> 64 µg/mL
same,MIC,S. aureus GC 6466; Mouse Serum pre-incubation,4 µg/mL
same,MIC,S. aureus GC 6466; Water pre-incubation,8 µg/mL
same,MIC,S. aureus GC 6467; Mouse Serum pre-incubation,8 µg/mL
same,MIC,S. aureus GC 6467; Water pre-incubation,8 µg/mL
same,MIC,S. aureus GC 1079; Mouse Serum pre-incubation,2 µg/mL
same,MIC,S. aureus GC 1079; Water pre-incubation,4 µg/mL
same,MIC,S. aureus GC 6335; Mouse Serum pre-incubation,4 µg/mL
same,MIC,S. aureus GC 6335; Water pre-incubation,4 µg/mL
same,MIC,S. aureus GC 6469; Mouse Serum pre-incubation,4 µg/mL
same,MIC,S. aureus GC 6469; Water pre-incubation,8 µg/mL
same,MIC,E. faecium GC 4556; Mouse Serum pre-incubation,4 µg/mL
same,MIC,E. faecium GC 4556; Water pre-incubation,8 µg/mL
same,MIC,S. pyogenes GC 4563; Mouse Serum pre-incubation,4 µg/mL
same,MIC,S. pyogenes GC 4563; Water pre-incubation,8 µg/mL
same,MIC,S. agalactiae GC 4564; Mouse Serum pre-incubation,16 µg/mL
same,MIC,S. agalactiae GC 4564; Water pre-incubation,16 µg/mL
